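1) Cells in 96-well plates. 2) Compound, 48 h, 5 concentrations. 3) Linear interpolation between surrounding doses. 4) Unreached endpoint = highest concentration. GI50: concentration for 50% inhibition of growth.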 Calls of active or inactive are those of the source. No stated cut-off is given here; in the data, active = GI50 up to about 1.1 µM and inactive = higher.
Legend:
Experiment in all cases: NCI-60 cell line screen, 48 h
OVCAR-8 = system: OVCAR-8
SK-MEL-2 = system: SK-MEL-2
LOX IMVI = system: LOX IMVI
A498 = system: A498
HOP-62 = system: HOP-62
MDA-N = system: MDA-N
KM12 = system: KM12
A549 = system: A549
NCI/ADR-RES = system: NCI/ADR-RES
M14 = system: M14
CAKI-1 = system: CAKI-1
MDA-MB-435 = system: MDA-MB-435
T47D = system: T47D
HCT-116 = system: HCT-116
TK-10 = system: TK-10
SF-268 = system: SF-268
SK-MEL-28 = system: SK-MEL-28
SF-295 = system: SF-295
IGROV-1 = system: IGROV-1
HL-60 = system: HL-60
OVCAR-5 = system: OVCAR-5
HCT-15 = system: HCT-15
786-0 = system: 786-0
MDA-MB-231 = system: MDA-MB-231
DU-145 = system: DU-145
NCI-H226 = system: NCI-H226
K562 = system: K562
SNB-75 = system: SNB-75
CCRF-CEM = system: CCRF-CEM
NCI-H460 = system: NCI-H460
U-251 = system: U-251
SW-620 = system: SW-620
OVCAR-4 = system: OVCAR-4
RPMI-8226 = system: RPMI-8226
HCC 2998 = system: HCC 2998
SF-539 = system: SF-539
ACHN = system: ACHN
UACC-62 = system: UACC-62
SK-MEL-5 = system: SK-MEL-5
RXF 393 = system: RXF 393
SR = system: SR
SN12C = system: SN12C
COLO 205 = system: COLO 205
HT-29 = system: HT-29
UACC-257 = system: UACC-257
EKVX = system: EKVX
SNB-19 = system: SNB-19
NCI-H23 = system: NCI-H23
BT-549 = system: BT-549
SK-OV-3 = system: SK-OV-3
OVCAR-3 = system: OVCAR-3
PC-3 = system: PC-3
MCF7 = system: MCF7
UO-31 = system: UO-31
MOLT-4 = system: MOLT-4
HOP-92 = system: HOP-92

In the case of `c1ccc2c[n+](CCCC[n+]3ccc4ccccc4c3)ccc2c1`, the GI50 (OVCAR-8) was > 100 µM (inactive), the GI50 (SK-MEL-2) was > 100 µM (inactive) and the GI50 (LOX IMVI) was > 100 µM (inactive). The GI50 (A498) was > 100 µM (inactive), the GI50 (HOP-62) was > 100 µM (inactive) and the GI50 (MDA-N) was > 100 µM (inactive). For the same compound, the GI50 (KM12) was > 100 µM (inactive), the GI50 (A549) was 1.13 µM (inactive) and the GI50 (NCI/ADR-RES) was > 100 µM (inactive). The GI50 (M14) was 1.12 µM (active), the GI50 (CAKI-1) was > 100 µM (inactive) and the GI50 (MDA-MB-435) was > 100 µM (inactive). The GI50 (T47D) was > 100 µM (inactive), the GI50 (HCT-116) was > 100 µM (inactive) and the GI50 (TK-10) was > 100 µM (inactive). For the same compound, the GI50 (SF-268) was > 100 µM (inactive), the GI50 (SK-MEL-28) was > 100 µM (inactive) and the GI50 (SF-295) was > 100 µM (inactive). The GI50 (IGROV-1) was > 100 µM (inactive), the GI50 (HL-60) was > 100 µM (inactive) and the GI50 (OVCAR-5) was > 100 µM (inactive). For the same compound, the GI50 (HCT-15) was greater than 100 µM, the GI50 (786-0) was > 100 µM (inactive) and the GI50 (MDA-MB-231) was > 100 µM (inactive). The GI50 (DU-145) was > 100 µM (inactive), the GI50 (NCI-H226) was > 100 µM (inactive) and the GI50 (K562) was > 100 µM (inactive). For the same compound, the GI50 (SNB-75) was > 100 µM (inactive), the GI50 (CCRF-CEM) was > 100 µM (inactive) and the GI50 (NCI-H460) was > 100 µM (inactive). The GI50 (U-251) was > 100 µM (inactive), the GI50 (SW-620) was > 100 µM (inactive) and the GI50 (OVCAR-4) was > 100 µM (inactive). The GI50 (RPMI-8226) was > 100 µM (inactive), the GI50 (HCC 2998) was > 100 µM (inactive) and the GI50 (SF-539) was > 100 µM (inactive). For the same compound, the GI50 (ACHN) was > 100 µM (inactive), the GI50 (UACC-62) was > 100 µM (inactive) and the GI50 (SK-MEL-5) was > 100 µM (inactive). For the same compound, the GI50 (RXF 393) was > 100 µM (inactive), the GI50 (SR) was > 100 µM (inactive) and the GI50 (SN12C) was > 100 µM (inactive). The GI50 (COLO 205) was > 100 µM (inactive), the GI50 (HT-29) was > 100 µM (inactive) and the GI50 (UACC-257) was > 100 µM (inactive). For the same compound, the GI50 (EKVX) was > 100 µM (inactive), the GI50 (SNB-19) was 21.8 µM (inactive) and the GI50 (NCI-H23) was > 100 µM (inactive). For the same compound, the GI50 (BT-549) was > 100 µM (inactive), the GI50 (SK-OV-3) was > 100 µM (inactive) and the GI50 (OVCAR-3) was > 100 µM (inactive). The GI50 (PC-3) was > 100 µM (inactive) and the GI50 (MCF7) was > 100 µM (inactive).

In the case of `N#C/C(C(=O)Nc1ccc(Cl)cc1)=C(/N)N1CCOCC1`, the GI50 (OVCAR-8) was > 100 µM (inactive), the GI50 (SK-MEL-2) was > 100 µM (inactive) and the GI50 (LOX IMVI) was > 100 µM (inactive). The GI50 (A498) was > 100 µM (inactive), the GI50 (HOP-62) was 73.3 µM (inactive) and the GI50 (MDA-N) was 61.8 µM (inactive). For the same compound, the GI50 (KM12) was > 100 µM (inactive), the GI50 (A549) was > 100 µM (inactive) and the GI50 (NCI/ADR-RES) was > 100 µM (inactive). For the same compound, the GI50 (M14) was 86.3 µM (inactive), the GI50 (CAKI-1) was > 100 µM (inactive) and the GI50 (MDA-MB-435) was 56.9 µM (inactive). For the same compound, the GI50 (T47D) was > 100 µM (inactive), the GI50 (HCT-116) was > 100 µM (inactive) and the GI50 (SK-MEL-28) was 76 µM (inactive). For the same compound, the GI50 (SF-295) was > 100 µM (inactive), the GI50 (IGROV-1) was > 100 µM (inactive) and the GI50 (OVCAR-5) was > 100 µM (inactive). For the same compound, the GI50 (HCT-15) was greater than 100 µM, the GI50 (786-0) was > 100 µM (inactive) and the GI50 (DU-145) was 94 µM (inactive). The GI50 (NCI-H226) was > 100 µM (inactive), the GI50 (K562) was 61.2 µM (inactive) and the GI50 (SNB-75) was 65.5 µM (inactive). The GI50 (CCRF-CEM) was > 100 µM (inactive), the GI50 (NCI-H460) was > 100 µM (inactive) and the GI50 (U-251) was > 100 µM (inactive). The GI50 (SW-620) was > 100 µM (inactive), the GI50 (UO-31) was 91 µM (inactive) and the GI50 (RPMI-8226) was > 100 µM (inactive). The GI50 (HCC 2998) was > 100 µM (inactive), the GI50 (SF-539) was > 100 µM (inactive) and the GI50 (ACHN) was > 100 µM (inactive). The GI50 (UACC-62) was 77.8 µM (inactive), the GI50 (SK-MEL-5) was 74.5 µM (inactive) and the GI50 (SR) was > 100 µM (inactive). The GI50 (SN12C) was > 100 µM (inactive), the GI50 (COLO 205) was > 100 µM (inactive) and the GI50 (HT-29) was > 100 µM (inactive). The GI50 (UACC-257) was 47.4 µM (inactive), the GI50 (EKVX) was > 100 µM (inactive) and the GI50 (MOLT-4) was 64 µM (inactive). For the same compound, the GI50 (SNB-19) was > 100 µM (inactive), the GI50 (NCI-H23) was > 100 µM (inactive) and the GI50 (BT-549) was > 100 µM (inactive). For the same compound, the GI50 (SK-OV-3) was > 100 µM (inactive), the GI50 (OVCAR-3) was 96.8 µM (inactive) and the GI50 (HOP-92) was > 100 µM (inactive). For the same compound, the GI50 (PC-3) was > 100 µM (inactive) and the GI50 (MCF7) was > 100 µM (inactive).
